How the values were obtained:
Format in all cases: in vivo
Reticulitermes speratus [1] = experiment: Test Example 3: treated filter paper in Petri dish, termite mortality after 37 days
Description: Mortality (%)=(Number of dead termite workers/15 termite workers)×100
Further, by the Colby's formula, the theoretical value (%) of mortality can be calculated. In a case where the actual mortality (%) is higher than the theoretical value (%), it can be said that the composition of the present invention has a synergistic effect for controlling the house insect pest.
A filter paper having a diameter of 80 mm was placed in a plastic Petri dish, and 1 ml of a pesticide solution having a predetermined concentration, was dropped thereon. After the treatment, the solvent was sufficiently evaporated, and then, 1 ml of distilled water was impregnated to the treated filter paper, whereupon 10 termite workers (Reticulitermes speratus) were released. The plastic Petri dish was placed in a container having wet cotton laid over the bottom, and the container was maintained at 25° C. for 37 days, whereupon the number of dead termites in the Petri dish was examined, and the mortality was calculated in the same manner as in Test Example 1.

Reticulitermes speratus [2] = experiment: Test Example 15: fresh pulp poison bait, termite mortality after 18 days; settings: fresh pulp bait 0.1%
From the text: (§1) Fresh pulp (2 cm×2 cm×0.1 cm) was immersed in a methanol solution of a sample compound. Then, it was dried to obtain a fresh pulp poison bait chemical containing 0.1% of the sample compound. This poison bait chemical was placed in a cylindrical cup made of acrylic resin (i.e. a cup having a hole with a diameter of 10 mm formed in the bottom and having hard plaster (Dental Stone) set at the bottom in a thickness of 10 mm), and 20 termite workers (Reticulitermes speratus) were released thereon. The cup was placed in a container having wet cotton laid over the bottom, and the container was maintained at room temperature of 25° C. for 18 days, whereupon the number of dead termites in the cup was examined, and the mortality was calculated.

Reticulitermes speratus [3] = experiment: Test Example 16: pulp (KIMUTAORU) poison bait, termite mortality after 18 days; settings: pulp (KIMUTAORU) bait 0.1%
From the text: as §1
A test was carried out in the same manner as the above Test Example 15 except that fresh pulp was changed to pulp (KIMUTAORU, tradename, manufactured by CRECIA Co.).

Reticulitermes speratus [4] = experiment: Test Example 9: treated filter paper in acrylic cup, termite mortality 5 and 20 days later; settings: 1000 ppm
Description: A filter paper having a diameter of 80 mm was placed in a cylindrical cup made of acrylic resin having a diameter of 80 mm and a height of 60 mm (i.e. a cup having a hole with a diameter of 10 mm formed in the bottom and having hard plaster (Dental Stone) set at the bottom in a thickness of 10 mm), and 1 ml of a solution containing a sample compound in a predetermined concentration, was dropped thereon. Then, ten termite workers and one termite soldier (Reticulitermes speratus) were released thereon. The cup was placed in a container having wet cotton laid over the bottom, and the container was maintained at room temperature of 25° C., and 5 days later and 20 days later, the mortality of termites in the cup was examined.

Coptotermes formosanus [5] = experiment: Test Example 17: dust placed in ant trail, termite mortality with time; settings: 0.5% dust, 10 mg in ant trail
Description: Soil was packed in a cylindrical connection section made of an acrylic resin connecting two cups made of acrylic resin (i.e. cups each having a hole with a diameter of 10 mm formed in the bottom and having hard plaster (Dental Stone) set at the bottom in a thickness of 10 mm), and 30 termite workers and 3 termite soldiers (Coptotermes formosanus) were released to let them form an ant trail. Then, at the center portion of the ant trail, 10 mg of a dust prepared by mixing in a mortar 0.5 part by weight of a sample compound and 99.5 parts by weight of cellulose powder, was placed. This test apparatus was put into a container having wet cotton laid over the bottom and kept at room temperature of 25° C., whereby the number of dead termites in the cup was examined as the time passed, and the mortality was calculated. Further, for the purpose of comparison, a similar test was carried out with respect to a dust containing 0.5% of fipronil (Terminal Dust, tradename, manufactured by Aventis Crop Science Shionogi K.K.).

Lasius japonicus = experiment: Test Example 22: cotton ball with compound in 10% cane sugar solution, ant mortality
Description: 10 Ants (Lasius japonicus) were put into a test tube together with a cotton ball impregnated with 0.5 ml of a solution containing a sample compound in a predetermined concentration and containing 10% of cane sugar. […]

Coptotermes formosanus [6] = experiment: Test Example 19: gel coated on Japanese red pine wood block, termite mortality with time
From the text: A gel prepared by uniformity mixing 0.2 part by weight of […], 20 parts by weight of sorbitol, 3.5 parts by weight of cross-linked product of a starch/sodium acrylate copolymer, a predetermined amount of a sample compound and a predetermined amount of water, was coated in an amount of 110 g/m^2 on a dried rectangular parallelpiped wood block of Japanese red pine of 20 mm (L)×10 mm (R)×10 mm (T). This test specimen was put into a cylindrical cup made of acrylic resin (i.e. a cup having a hole with a diameter of 10 mm in the bottom and having hard plaster (Dental Stone) set at the bottom in a thickness of 10 mm), and 20 termite workers (Coptotermes formosanus) were released thereon. The cup was placed in a container having wet cotton laid over the bottom, and the container was maintained at room temperature of 25° C., whereby the number of dead termites in the cup was examined as the time passed, and the mortality was calculated.

## CC(=NN=C(Cc1ccc(C(F)(F)F)cc1)c1ccc(F)cc1)N(C)C [Compound No. II-2, [4′-fluoro-2-(4-trifluoromethylphenyl)acetophenone]N′-[1-(dimethylamino)ethylidene]hydrazone]
Reticulitermes speratus [1]; II-2 5 ppm alone
  Mortality: 10%
Reticulitermes speratus [1]; II-2 10 ppm alone
  Mortality: 20%
Reticulitermes speratus [2]
  Mortality: 100%
Reticulitermes speratus [3]
  Mortality: 100%
Reticulitermes speratus [4]; 5 Days later
  Mortality: 100%
Reticulitermes speratus [4]; 20 Days later
  Mortality: 100%
Coptotermes formosanus [5]; 6 Days later
  Mortality: 37%
Coptotermes formosanus [5]; 11 Days later
  Mortality: 100%
Coptotermes formosanus [5]; 15 Days later
  Mortality: 100%
Lasius japonicus; 10 ppm, 1 Day later
  Mortality: 0%
Lasius japonicus; 10 ppm, 2 Days later
  Mortality: 0%
  abnormal ratio: 20%
Lasius japonicus; 10 ppm, 3 Days later
  Mortality: 40%
Lasius japonicus; 10 ppm, 8 Days later
  Mortality: 80%
Lasius japonicus; 10 ppm, 11 Days later
  Mortality: 100%
Lasius japonicus; 50 ppm, 1 Day later
  Mortality: 30%
  abnormal ratio: 70%
Lasius japonicus; 50 ppm, 2 Days later
  Mortality: 100%
Lasius japonicus; 50 ppm, 3 Days later
  Mortality: 100%
Lasius japonicus; 50 ppm, 8 Days later
  Mortality: 100%
Lasius japonicus; 50 ppm, 11 Days later
  Mortality: 100%
Coptotermes formosanus [6]; gel 0.005%, 2 Days later
  Mortality: 0%
Coptotermes formosanus [6]; gel 0.005%, 6 Days later
  Mortality: 0%
Coptotermes formosanus [6]; gel 0.005%, 12 Days later
  Mortality: 10%
Coptotermes formosanus [6]; gel 0.005%, 23 Days later
  Mortality: 30%
Coptotermes formosanus [6]; gel 0.005%, 34 Days later
  Mortality: 60%
Coptotermes formosanus [6]; gel 0.01%, 2 Days later
  Mortality: 0%
Coptotermes formosanus [6]; gel 0.01%, 6 Days later
  Mortality: 0%
Coptotermes formosanus [6]; gel 0.01%, 12 Days later
  Mortality: 10%
Coptotermes formosanus [6]; gel 0.01%, 23 Days later
  Mortality: 60%
Coptotermes formosanus [6]; gel 0.01%, 34 Days later
  Mortality: 100%
Coptotermes formosanus [6]; gel 0.05%, 2 Days later
  Mortality: 0%
Coptotermes formosanus [6]; gel 0.05%, 6 Days later
  Mortality: 0%
Coptotermes formosanus [6]; gel 0.05%, 12 Days later
  Mortality: 100%
Coptotermes formosanus [6]; gel 0.05%, 23 Days later
  Mortality: 100%
Coptotermes formosanus [6]; gel 0.05%, 34 Days later
  Mortality: 100%
Coptotermes formosanus [6]; gel 0.1%, 2 Days later
  Mortality: 0%
Coptotermes formosanus [6]; gel 0.1%, 6 Days later
  Mortality: 60%
Coptotermes formosanus [6]; gel 0.1%, 12 Days later
  Mortality: 100%
Coptotermes formosanus [6]; gel 0.1%, 23 Days later
  Mortality: 100%
Coptotermes formosanus [6]; gel 0.1%, 34 Days later
  Mortality: 100%

From US7655677B2, “Composition and method for controlling house insect pest” (priority 2002, dated 2010)
